Assay results reported in publication PMC6150325 (Molecules : A Journal of Synthetic Chemistry and Natural …, 2017).
Values joined by “and” are separate entries in the source; they are usually repeats but may differ in a detail not shown here. Equal entries are not always repeated. Where two headings read alike, the source gives them in different places.

Tests used:
[1] = molecular target: T1, bacterial Vibrio cholerae neuraminidase (VCNA) (Vibrio cholerae serotype O1, UniProt P0C6E9); test: biochemical; conditions: mean ± SD, n = 3–6
T1 construct: purchased Hoffmann La Roche, Basel, Switzerland
T1 sequence (P0C6E9 25-781): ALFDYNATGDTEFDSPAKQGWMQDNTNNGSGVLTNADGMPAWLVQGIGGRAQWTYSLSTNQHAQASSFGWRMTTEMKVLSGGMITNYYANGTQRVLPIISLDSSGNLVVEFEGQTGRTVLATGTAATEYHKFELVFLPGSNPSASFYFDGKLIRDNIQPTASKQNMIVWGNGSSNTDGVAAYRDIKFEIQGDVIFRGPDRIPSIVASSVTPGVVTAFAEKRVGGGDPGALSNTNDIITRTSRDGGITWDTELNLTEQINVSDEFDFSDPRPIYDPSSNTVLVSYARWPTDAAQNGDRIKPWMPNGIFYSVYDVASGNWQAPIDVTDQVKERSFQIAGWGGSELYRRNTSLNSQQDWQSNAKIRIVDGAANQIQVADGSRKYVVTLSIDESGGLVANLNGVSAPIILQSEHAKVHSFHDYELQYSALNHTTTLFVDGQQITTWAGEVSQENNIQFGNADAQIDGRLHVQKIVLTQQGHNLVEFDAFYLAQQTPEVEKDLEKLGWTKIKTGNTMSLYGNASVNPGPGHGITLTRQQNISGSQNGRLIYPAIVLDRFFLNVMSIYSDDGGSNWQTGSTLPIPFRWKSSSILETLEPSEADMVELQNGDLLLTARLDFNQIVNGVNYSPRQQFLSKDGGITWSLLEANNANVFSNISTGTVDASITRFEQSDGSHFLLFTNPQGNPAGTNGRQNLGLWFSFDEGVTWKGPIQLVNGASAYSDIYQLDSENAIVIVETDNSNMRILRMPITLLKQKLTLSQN

[2] = molecular target: viral influenza A/California/04/2009 (H1N1) neuraminidase (H1N1-NA) (Influenza A virus (A/California/04/2009(H1N1)), UniProt C3W5S3); test: biochemical; type: biochemical
[3] = molecular target: Streptococcus pneumoniae NA NanA; conditions: cited from earlier work
Ruminococcus gnavus NA = conditions: cited from earlier work
bacterial VCNA = molecular target: T2, bacterial VCNA (Vibrio cholerae serotype O1, UniProt P0C6E9); test: biochemical
T2 construct: purchased Hoffmann La Roche, Basel, Switzerland
T2 sequence (P0C6E9 25-781): as above
Description: The median–effect concentration (Dm, a parameter analogous to the IC50 value indicating potency), the slope of the concentration–effect relationship (m, the dynamic order or the shape of dose–effect curve), and the linear regression correlation coefficient (r, a measure of data quality) were determined from the median–effect plots.
The concentration–efficiency curves of the test samples were transformed into the double-logarithmic mean action diagram (shape (m), intercepts and regression coefficients were used to determine the median effect dose Dm). Dm= 10^−(b/m)
Fraction affected (fa) and fraction unaffected (fu) by the concentration D were calculated by the median effect equation [27]: fa/fu= (D/Dm)^m
Dm is the concentration required to produce the median effect.

With `O=C1O[C@H]2[C@H](OC(=O)c3cc(O)c(O)c(O)c3)[C@@H](OC(=O)c3cc(O)c(O)c4c3[C@@H]3C1=CC(=O)[C@](O)(O4)C3(O)O)[C@@H]1OC(=O)c3cc(O)c(O)c(O)c3-c3c(cc(O)c(O)c3O)C(=O)OC[C@H]2O1` [carpinusin] the IC50 [1] was 138 µM.
`O=C1OC[C@@H](O)[C@H]([C@@H]2OC(=O)c3cc(O)c(O)c(O)c3-c3c(O)c(O)c(O)c4c3C(=O)O[C@H]2[C@@H]4O)OC(=O)c2cc(O)c(O)c(O)c2-c2c1cc(O)c(O)c2O` [casuariin] gave an IC50 [1] of 236 µM.
For `O=C(O[C@H]1Cc2c(O)cc(O)cc2O[C@@H]1c1ccc(O)c(O)c1)c1cc(O)c(O)c(O)c1` [catechin-3-O-gallate], the IC50 ([2]; IC50 (Viral)) was 1950 µM and the IC50 [1] was 54.3 µM and 55 µM.
In the case of `Oc1cc(O)c2c(c1)O[C@H](c1ccc(O)c(O)c1)[C@@H](O)C2` [catechin], the IC50 ([2]; IC50 (Viral)) is reported as 1070 µM and 1080 µM and the IC50 [1] is reported as 2050 µM.
In the case of `O=C(O[C@@H]1Cc2c(O)cc(O)cc2O[C@@H]1c1ccc(O)c(O)c1)c1cc(O)c(O)c(O)c1` [epicatechin-3-O-gallate], the IC50 ([2]; IC50 (Viral)) is reported as 1910 µM and the IC50 [1] is reported as 210 µM and 211 µM.
`Oc1cc(O)c2c(c1)O[C@H](c1ccc(O)c(O)c1)[C@H](O)C2` [epicatechin] gave an IC50 ([2]; IC50 (Viral)) of 1050 µM and an IC50 [1] of 2310 µM.
In the case of `O=C(O[C@@H]1Cc2c(O)cc(O)cc2O[C@@H]1c1cc(O)c(O)c(O)c1)c1cc(O)c(O)c(O)c1` [epigallocatechin-3-O-gallate], the IC50 ([2]; IC50 (Viral)) is reported as 1560 µM and the IC50 [1] is reported as 63.3 µM and 64 µM.
With `Oc1cc(O)c2c(c1)O[C@H](c1cc(O)c(O)c(O)c1)[C@H](O)C2` [epigallocatechin] the IC50 ([2]; IC50 (Viral)) was 1740 µM and the IC50 [1] was 1950 µM and 1960 µM.
In the case of `O=C(O[C@H]1Cc2c(O)cc(O)cc2O[C@@H]1c1cc(O)c(O)c(O)c1)c1cc(O)c(O)c(O)c1` [gallocatechin-3-O-gallate], the IC50 ([2]; IC50 (Viral)) is reported as 395 µM and 396 µM and the IC50 [1] is reported as 24 µM and 25 µM.
`Oc1cc(O)c2c(c1)O[C@H](c1cc(O)c(O)c(O)c1)[C@@H](O)C2` [gallocatechin] showed an IC50 ([2]; IC50 (Viral)) of 1790 µM and an IC50 [1] of 1970 µM.
In the case of `O=C1O[C@H]2[C@@H]3OC(=O)c4cc(O)c(O)c(O)c4-c4c(cc(O)c(O)c4O)C(=O)OC[C@H]2O[C@@H](OC(=O)c2cc(O)c(O)c(O)c2)[C@@H]3OC(=O)c2cc(O)c(O)c3c2[C@@H]2C1=CC(=O)[C@](O)(O3)C2(O)O` [geraniin], the IC50 [1] is reported as 134 µM and 135 µM.
With `O=C1O[C@H]2[C@H](O)[C@@H](OC(=O)c3cc(O)c(O)c4c3[C@@H]3C1=CC(=O)[C@](O)(O4)C3(O)O)[C@@H]1OC(=O)c3cc(O)c(O)c(O)c3-c3c(cc(O)c(O)c3O)C(=O)OC[C@H]2O1` [granatin A] the IC50 [1] was 155 µM and 158 µM.
In the case of `CCC(CC)O[C@@H]1C=C(C(=O)O)C[C@H](N)[C@H]1NC(C)=O` [oseltamivir carboxylate], the Ki [3] is listed as 1.77 µM and the IC50 (Ruminococcus gnavus NA) is listed as 30 µM.
In the case of `O=C(OCC1OC(OC(=O)c2cc(O)c(O)c(O)c2)C(OC(=O)c2cc(O)c(O)c(O)c2)C(OC(=O)c2cc(O)c(O)c(O)c2)C1OC(=O)c1cc(O)c(O)c(O)c1C1c2c(O)c(O)c(O)c3c2C(=O)OC1C(C1OC(=O)c2cc(O)c(O)c(O)c2-c2c(cc(O)c(O)c2O)C(=O)OCC1O)OC(=O)c1cc(O)c(O)c(O)c1-3)c1cc(O)c(O)c(O)c1` (stereo not drawn) [paeonianin C], the IC50 ([2]; read-out: IC50 (Viral)) is reported as 344 µM and the IC50 [1] is reported as 14.6 µM and 15 µM.
For `O=C1O[C@H]2[C@H](OC(=O)c3cc(O)c(O)c(O)c3)[C@@H](OC(=O)c3cc(O)c(O)c4c3[C@@H]3C1=CC(=O)C(O)(O)C3(O)O4)[C@H](OC(=O)c1cc(O)c(O)c(O)c1)O[C@@H]2COC(=O)c1cc(O)c(O)c(O)c1` (stereo partly drawn) [terchebin], the “fold higher inhibitory potency compared to paeonianin C” value [2] was 3.5 fold, the IC50 ([2]; IC50 (Viral)) was 102 µM and 101 µM and the IC50 [1] was 30.4 µM and 31 µM.
In the case of `O=C1OCC2OC(=O)c3cc(O)c(O)c(O)c3-c3c(O)c(O)c(O)c4c3C(=O)OC(C2OC(=O)c2cc(O)c(O)c(O)c2-c2c1cc(O)c(O)c2O)C1OC(=O)c2c-4c(O)c(O)c(O)c2C1O` (stereo not drawn) [vescalagin], the IC50 [1] is reported as 134 µM.
For `CC(=O)N[C@H]1[C@H]([C@H](O)[C@H](O)CO)OC(C(=O)O)=C[C@@H]1N=C(N)N` [zanamivir, 2,4-dideoxy-2,3-didehydro-4-guanidino-N-acetylneuraminic acid], the Ki [3] is listed as 720 µM, the IC50 (bacterial VCNA) is listed as 51.2 µM and the “m (slope of the concentration–effect relationship)” value (bacterial VCNA; VCNA, median effect plot) is listed as 0.9. For the same compound, the IC50 [1] was 51.2 µM and 52 µM and the IC50 (Ruminococcus gnavus NA) was 11900 µM.
